Consider five molecules from US20250360149A1, “GPCR INHIBITORS AND USES THEREOF” (GPCR Therapeutics, Inc., priority 2022, published 2025).

Data set [1] addresses CXCR4 and B2AR heteromers (Homo sapiens, UniProt P61073). The conditions noted are these: MDA-MB-231 cells.
The test system of data set [2] is C57BL/6J or Balb/c mice. Briefly: In vivo mobilization, CBC analysis of WBC (Example 11). The conditions noted are these: for fold increase in WBCs compared to the vehicle: PB 2 h after GPC-100 30 mg/kg IV, 1 h after AMD3100 5 mg/kg SC, 12 h after G-CSF 0.1 mg/kg SC BID x5, propranolol 20 mg/kg IP QD x7.
For data set [3], the system named is C57BL/6J or Balb/c mice. As to conditions: 5 mg/kg SC, literature; cited from earlier work.
The subject of a further data set is C57/B16 mice. Briefly: Complete blood count, beta blockers +/- GPC100, single agents and combinations (Examples 6-7). The conditions noted are these: for effect of 7-day beta blocker on GPC100-induced mobilization: GPC100 30 mg/kg IV on day 7.
Data set [4] relates to LSK cells (Lineage−Sca−1+c−Kit+). Briefly: Flow cytometry of LSK cells in peripheral blood. The conditions noted are these: mouse, in vivo.
The test system of a further data set is C57/BL6 mice. Briefly: Complete blood count in peripheral blood, Example 1 mobilization studies. The conditions noted are these: 7-day treatment alone, 20 mg/kg IP.

CXCR4 and B2AR heteromers, sequence (P61073 whole entry, one chain of several): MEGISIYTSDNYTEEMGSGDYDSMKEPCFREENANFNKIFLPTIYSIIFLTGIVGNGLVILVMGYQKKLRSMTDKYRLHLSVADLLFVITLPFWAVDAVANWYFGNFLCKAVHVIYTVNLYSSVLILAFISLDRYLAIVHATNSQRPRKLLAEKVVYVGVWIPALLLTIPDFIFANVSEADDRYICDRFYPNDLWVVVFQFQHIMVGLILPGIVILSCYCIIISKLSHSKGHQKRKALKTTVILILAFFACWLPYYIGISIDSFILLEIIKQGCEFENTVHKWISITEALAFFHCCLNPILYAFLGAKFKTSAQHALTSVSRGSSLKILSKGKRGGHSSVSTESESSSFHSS

Turning to `c1cc(CN2CCCNCCNCCCNCC2)ccc1CN1CCCNCCNCCCNCC1` [AMD3100, Plerixafor], the “Inhibition of Ca2+ flux enhanced by co-treatment with Pro (in words)” value in data set [1] is given as “not”. The “changes in platelet count, hemoglobin or other red blood cell parameters” value in the data set with C57BL/6J or Balb/c mice [2] (single administration) was “No changes”. Moreover, the “time of peak mobilization” value in the data set on C57BL/6J or Balb/c mice [3] was 1 h.
Consider `Cc1ccc(OCC(O)C(C)NC(C)C)c2c1CCC2` (centres unmarked) [ICI-118,551], for which the “effect on total blood cell counts when administered alone” value in the data set with C57/B16 mice (seven-day IP, propranolol 20 mg/kg, nadolol 5 mg/kg, ICI-118,551 5 mg/kg) is on record as “did not affect”.
Consider `CC(C)(C)NCC(O)COc1cccc2c1CC(O)C(O)C2` (centres unmarked) [Nadolol], for which the “effect of 7-day beta blocker on GPC100-induced mobilization” value in the data set on C57/B16 mice is reported as “enhanced”.
For the molecule `CC(C)NCC(O)COc1cccc2ccccc12` (centres unmarked) [Propranolol], in data set [4], the “effect of propranolol on LSK cell mobilization by GPC-100” value is listed as “enhanced”. For the same molecule, in the data set with C57/BL6 mice, the Hemoglobin came out at 13.15 ± 0.8 g/dL, the Lymphocytes was 4.7 ± 1.3 10^3/uL, the Monocytes is 0.2 ± 0.09 10^3/uL and the Neutrophils is 0.42 ± 0.3 10^3/uL. In addition, in the data set on C57/BL6 mice, the Platelets is recorded as 266 ± 52 10^3/uL and the RBC is recorded as 9.8 ± 0.36 10^6/uL. Further, the WBC in the data set with C57/BL6 mice (vehicle IV on day 7) is reported as 5.4 ± 1.7 10^3/uL. In the data set with C57/B16 mice, the “effect of 7-day beta blocker on GPC100-induced mobilization” value is recorded as “enhanced”. Also, in the data set on C57/B16 mice (propranolol 20 mg/kg IP D1-D7, AMD3100 5 mg/kg SC D7), the “effect on AMD3100-induced mobilization of lymphocytes” value is “slightly increase”. Besides, in the data set on C57BL/6J or Balb/c mice [2] (20 mg/kg IP over 7 days), the “effect of propranolol pretreatment on GPC-100 induced mobilization” value is reported as “significantly improved”. Also, in the data set with C57BL/6J or Balb/c mice [2], the “fold increase in WBCs compared to the vehicle” value is 4.1 fold.

B1: G-CSF: Recombinant murine G-CSF, granulocyte-colony stimulating factor (protein, UniProt P09920 31-208, looked up)
Granulocyte …: VPLVTVSALPPSLPLPRSFLLKSLEQVRKIQASGSVLLEQLCATYKLCHPEELVLLGHSLGIPKASLSGCSSQALQQTQCLSQLHSGLCLYQGLLQALSGISPALAPTLDLLQLDVANFATTIWQQMENLGVAPTVQPTQSAMPAFTSAFQRRAGGVLAISYLQGFLETARLALHHLA
For B1, in the data set with C57/B16 mice (single agent), the “WBC mobilization, single agent comparison” value is listed as “Maximum mobilization” and the “neutrophil mobilization, single agent comparison” value is “more neutrophils than GPC100 or AMD3100”. For the same molecule, the “fold increase in WBCs compared to the vehicle” value with C57BL/6J or Balb/c mice [2] was determined as 4.5 fold.
